In ChEMBL document CHEMBL4507287, “Data for DCP probe MRL-650” (2021):

Experiments:
[1] = target: Casein kinase I isoform gamma-3 (Homo sapiens) (UniProt Q9Y6M4); details: Compound concentration 1000.0 nM
[2] = target: Serine/threonine-protein kinase haspin (Homo sapiens) (UniProt Q8TF76); details: Compound concentration 1000.0 nM
[3] = system: Receptor-type tyrosine-protein kinase FLT3 (Homo sapiens), P36888 [D835Y]; details: Compound concentration 1000.0 nM
[4] = target: Mitogen-activated protein kinase kinase kinase 13 (Homo sapiens) (UniProt O43283); details: Compound concentration 1000.0 nM
[5] = target: Serine/threonine-protein kinase TNNI3K (Homo sapiens) (UniProt Q59H18); details: Compound concentration 1000.0 nM
Serine/threonine-protein kinase TNNI3K (Homo sapiens), sequence (Q59H18 whole entry): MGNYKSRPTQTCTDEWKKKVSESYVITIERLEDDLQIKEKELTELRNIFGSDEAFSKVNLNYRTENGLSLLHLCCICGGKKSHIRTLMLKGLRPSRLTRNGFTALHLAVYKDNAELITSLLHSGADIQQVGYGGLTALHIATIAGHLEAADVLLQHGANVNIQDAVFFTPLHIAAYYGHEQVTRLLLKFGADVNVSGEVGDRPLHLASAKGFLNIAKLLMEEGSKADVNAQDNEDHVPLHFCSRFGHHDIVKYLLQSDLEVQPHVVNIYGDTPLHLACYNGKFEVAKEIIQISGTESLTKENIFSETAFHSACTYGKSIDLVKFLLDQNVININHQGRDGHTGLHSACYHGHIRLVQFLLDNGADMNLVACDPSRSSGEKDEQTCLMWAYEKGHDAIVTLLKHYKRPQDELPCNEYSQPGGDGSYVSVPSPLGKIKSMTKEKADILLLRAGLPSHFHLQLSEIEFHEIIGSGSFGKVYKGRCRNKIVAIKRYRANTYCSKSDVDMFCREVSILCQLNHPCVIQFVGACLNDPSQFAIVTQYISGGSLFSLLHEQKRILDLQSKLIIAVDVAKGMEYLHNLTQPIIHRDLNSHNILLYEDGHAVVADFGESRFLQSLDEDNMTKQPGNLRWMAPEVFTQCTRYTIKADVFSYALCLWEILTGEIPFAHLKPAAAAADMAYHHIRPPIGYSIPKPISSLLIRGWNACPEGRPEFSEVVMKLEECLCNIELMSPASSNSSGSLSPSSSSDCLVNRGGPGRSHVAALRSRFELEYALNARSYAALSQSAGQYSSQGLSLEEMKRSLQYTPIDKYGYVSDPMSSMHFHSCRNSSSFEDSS

[6] = target: Testis-specific serine/threonine-protein kinase 1 (Homo sapiens) (UniProt Q9BXA7); details: Compound concentration 1000.0 nM
Testis-specific serine/threonine-protein kinase 1 (Homo sapiens), sequence (Q9BXA7 whole entry): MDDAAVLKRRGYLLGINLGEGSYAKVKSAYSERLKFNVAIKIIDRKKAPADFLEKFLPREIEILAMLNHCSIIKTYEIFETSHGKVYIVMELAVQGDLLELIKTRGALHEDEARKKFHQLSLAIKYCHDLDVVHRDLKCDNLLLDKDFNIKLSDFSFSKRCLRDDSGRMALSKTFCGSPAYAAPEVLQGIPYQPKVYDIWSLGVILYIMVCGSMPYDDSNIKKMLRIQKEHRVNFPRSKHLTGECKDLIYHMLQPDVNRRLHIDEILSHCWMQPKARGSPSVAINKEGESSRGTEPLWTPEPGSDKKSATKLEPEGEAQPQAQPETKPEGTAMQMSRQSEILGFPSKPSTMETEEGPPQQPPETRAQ

[7] = target: Myosin light chain kinase 2, skeletal/cardiac muscle (Homo sapiens) (UniProt Q9H1R3); details: Compound concentration 1000.0 nM
[8] = target: MAP/microtubule affinity-regulating kinase 3 (Homo sapiens) (UniProt P27448); details: Compound concentration 1000.0 nM
[9] = target: Serine/threonine-protein kinase pim-1 (Homo sapiens) (UniProt P11309); details: Compound concentration 1000.0 nM
Serine/threonine-protein kinase pim-1 (Homo sapiens), sequence (P11309 whole entry, looked up): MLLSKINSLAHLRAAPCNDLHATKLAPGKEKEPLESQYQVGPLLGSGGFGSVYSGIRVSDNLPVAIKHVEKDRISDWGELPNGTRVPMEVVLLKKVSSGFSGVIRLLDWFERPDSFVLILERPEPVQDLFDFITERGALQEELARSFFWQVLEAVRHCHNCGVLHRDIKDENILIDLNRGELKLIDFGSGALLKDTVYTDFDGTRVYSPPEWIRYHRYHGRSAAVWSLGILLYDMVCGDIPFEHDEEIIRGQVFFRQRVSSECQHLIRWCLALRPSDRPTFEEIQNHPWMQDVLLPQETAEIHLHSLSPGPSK

[10] = target: SNF-related serine/threonine-protein kinase (Homo sapiens) (UniProt Q9NRH2); details: Compound concentration 1000.0 nM
[11] = target: Serine/threonine-protein kinase SBK1 (Homo sapiens) (UniProt Q52WX2); details: Compound concentration 1000.0 nM
Serine/threonine-protein kinase SBK1 (Homo sapiens), sequence (Q52WX2 whole entry): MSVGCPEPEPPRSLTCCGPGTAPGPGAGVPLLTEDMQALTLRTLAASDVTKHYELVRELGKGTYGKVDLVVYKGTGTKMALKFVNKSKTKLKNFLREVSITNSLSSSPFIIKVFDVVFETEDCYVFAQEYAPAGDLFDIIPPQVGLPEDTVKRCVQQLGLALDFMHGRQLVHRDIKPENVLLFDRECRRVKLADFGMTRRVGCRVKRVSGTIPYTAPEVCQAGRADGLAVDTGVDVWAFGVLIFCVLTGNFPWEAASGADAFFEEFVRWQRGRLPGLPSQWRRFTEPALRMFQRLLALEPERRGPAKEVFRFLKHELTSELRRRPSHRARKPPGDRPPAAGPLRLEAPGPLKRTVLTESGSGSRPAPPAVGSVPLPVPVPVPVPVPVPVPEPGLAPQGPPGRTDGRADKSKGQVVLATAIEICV

[12] = target: Tyrosine-protein kinase Fer (Homo sapiens) (UniProt P16591); details: Compound concentration 1000.0 nM
[13] = target: Mitogen-activated protein kinase kinase kinase 15 (Homo sapiens) (UniProt Q6ZN16); details: Compound concentration 1000.0 nM
[14] = target: Non-receptor tyrosine-protein kinase TYK2 (Homo sapiens) (UniProt P29597); details: Compound concentration 1000.0 nM
[15] = target: Ephrin type-A receptor 2 (Homo sapiens) (UniProt P29317); details: Compound concentration 1000.0 nM
[16] = target: Cyclin-G-associated kinase (Homo sapiens) (UniProt O14976); details: Compound concentration 1000.0 nM
[17] = target: Tyrosine-protein kinase Fes/Fps (Homo sapiens) (UniProt P07332); details: Compound concentration 1000.0 nM
[18] = target: Alpha-2A adrenergic receptor (Homo sapiens) (UniProt P08913); details: Compound concentration 10.0 uM
[19] = system: Receptor-type tyrosine-protein kinase FLT3 (Homo sapiens), P36888 [UNDEFINED MUTATION]; details: Compound concentration 1000.0 nM
[20] = target: Vascular endothelial growth factor receptor 2 (Homo sapiens) (UniProt P35968); details: Compound concentration 1000.0 nM
[21] = target: 5-hydroxytryptamine receptor 2B (Homo sapiens) (UniProt P41595); details: Compound concentration 10.0 uM
[22] = target: Cyclin-dependent kinase 14 (Homo sapiens) (UniProt O94921); details: Compound concentration 1000.0 nM
[23] = system: Epidermal growth factor receptor (Homo sapiens), P00533 [UNDEFINED MUTATION]; details: Compound concentration 1000.0 nM
Epidermal growth factor receptor (Homo sapiens), P00533 [UNDEFINED MUTATION], sequence (P00533 whole entry, looked up, change not shown): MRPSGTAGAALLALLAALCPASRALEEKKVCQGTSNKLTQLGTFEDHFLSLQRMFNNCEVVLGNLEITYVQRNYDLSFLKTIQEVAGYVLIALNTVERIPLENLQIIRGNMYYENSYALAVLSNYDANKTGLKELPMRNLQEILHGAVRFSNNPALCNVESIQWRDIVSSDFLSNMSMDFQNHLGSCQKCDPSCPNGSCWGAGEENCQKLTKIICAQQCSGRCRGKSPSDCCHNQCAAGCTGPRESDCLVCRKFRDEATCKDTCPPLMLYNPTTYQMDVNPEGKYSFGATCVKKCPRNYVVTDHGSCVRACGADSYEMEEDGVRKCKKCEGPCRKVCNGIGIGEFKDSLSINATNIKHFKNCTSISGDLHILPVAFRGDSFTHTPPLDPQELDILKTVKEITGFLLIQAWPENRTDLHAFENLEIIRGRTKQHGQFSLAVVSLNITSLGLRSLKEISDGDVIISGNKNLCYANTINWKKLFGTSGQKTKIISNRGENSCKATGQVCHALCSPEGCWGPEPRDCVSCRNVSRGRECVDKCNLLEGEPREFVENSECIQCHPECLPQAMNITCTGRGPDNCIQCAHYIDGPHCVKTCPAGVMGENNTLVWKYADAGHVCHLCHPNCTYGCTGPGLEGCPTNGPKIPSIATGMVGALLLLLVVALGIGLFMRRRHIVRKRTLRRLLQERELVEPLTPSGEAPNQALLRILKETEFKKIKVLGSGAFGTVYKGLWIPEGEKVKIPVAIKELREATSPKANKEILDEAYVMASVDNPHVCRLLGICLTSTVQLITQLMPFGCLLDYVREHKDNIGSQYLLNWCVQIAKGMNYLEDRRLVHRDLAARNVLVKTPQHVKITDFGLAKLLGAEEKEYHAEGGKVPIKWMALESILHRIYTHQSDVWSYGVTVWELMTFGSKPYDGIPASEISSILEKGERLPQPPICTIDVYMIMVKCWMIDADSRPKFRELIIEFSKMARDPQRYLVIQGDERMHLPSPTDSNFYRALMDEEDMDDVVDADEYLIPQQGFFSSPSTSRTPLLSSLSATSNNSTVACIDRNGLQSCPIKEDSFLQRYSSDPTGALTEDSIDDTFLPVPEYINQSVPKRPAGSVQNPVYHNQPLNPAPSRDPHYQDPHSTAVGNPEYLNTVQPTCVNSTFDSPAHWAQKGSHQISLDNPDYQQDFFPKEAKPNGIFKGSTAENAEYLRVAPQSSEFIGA

[24] = target: Ribosomal protein S6 kinase alpha-1 (Homo sapiens) (UniProt Q15418); details: Compound concentration 1000.0 nM
Ribosomal protein S6 kinase alpha-1 (Homo sapiens), sequence (Q15418 whole entry): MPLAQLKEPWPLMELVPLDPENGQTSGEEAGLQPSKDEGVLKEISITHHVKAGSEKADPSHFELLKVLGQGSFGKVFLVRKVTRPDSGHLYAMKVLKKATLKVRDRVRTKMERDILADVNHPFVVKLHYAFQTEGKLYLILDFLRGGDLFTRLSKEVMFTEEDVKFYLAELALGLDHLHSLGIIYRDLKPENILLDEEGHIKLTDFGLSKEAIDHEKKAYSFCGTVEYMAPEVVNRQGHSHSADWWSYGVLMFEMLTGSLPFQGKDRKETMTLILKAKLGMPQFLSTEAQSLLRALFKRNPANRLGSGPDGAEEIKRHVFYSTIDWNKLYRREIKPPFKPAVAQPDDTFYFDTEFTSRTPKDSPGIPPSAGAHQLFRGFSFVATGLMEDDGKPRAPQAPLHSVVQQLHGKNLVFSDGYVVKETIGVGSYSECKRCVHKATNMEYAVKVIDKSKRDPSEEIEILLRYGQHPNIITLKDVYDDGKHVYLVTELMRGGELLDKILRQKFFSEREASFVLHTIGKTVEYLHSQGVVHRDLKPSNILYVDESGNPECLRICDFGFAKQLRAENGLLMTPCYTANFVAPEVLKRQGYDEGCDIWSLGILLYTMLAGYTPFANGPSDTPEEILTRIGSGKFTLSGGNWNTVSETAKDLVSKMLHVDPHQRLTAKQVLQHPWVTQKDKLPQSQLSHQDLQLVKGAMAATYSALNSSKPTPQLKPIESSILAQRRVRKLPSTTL

[25] = target: Platelet-derived growth factor receptor beta (Homo sapiens) (UniProt P09619); details: Compound concentration 1000.0 nM
[26] = target: BMP-2-inducible protein kinase (Homo sapiens) (UniProt Q9NSY1); details: Compound concentration 1000.0 nM
[27] = target: Ribosomal protein S6 kinase alpha-1 (Homo sapiens) (UniProt Q15418); details: Compound concentration 1000.0 nM; remark: listed apart in the source
[28] = system: Hepatocyte growth factor receptor (Homo sapiens), P08581 [M1250T]; details: Compound concentration 1000.0 nM
[29] = target: cGMP-dependent protein kinase 1 (Homo sapiens) (UniProt Q13976); details: Compound concentration 1000.0 nM
[30] = target: Receptor tyrosine-protein kinase erbB-4 (Homo sapiens) (UniProt Q15303); details: Compound concentration 1000.0 nM
[31] = system: Tyrosine-protein kinase ABL1 (Homo sapiens), P00519 [H396P]; details: Compound concentration 1000.0 nM
[32] = target: Mitogen-activated protein kinase 9 (Homo sapiens) (UniProt P45984); details: Compound concentration 1000.0 nM
[33] = target: SRSF protein kinase 3 (Homo sapiens) (UniProt Q9UPE1); details: Compound concentration 1000.0 nM
[34] = target: Bone morphogenetic protein receptor type-1A (Homo sapiens) (UniProt P36894); details: Compound concentration 1000.0 nM
[35] = target: Serine/threonine-protein kinase RIO3 (Homo sapiens) (UniProt O14730); details: Compound concentration 1000.0 nM
[36] = target: Histamine H2 receptor (Homo sapiens) (UniProt P25021); details: Compound concentration 10.0 uM
Histamine H2 receptor (Homo sapiens), sequence (P25021 whole entry): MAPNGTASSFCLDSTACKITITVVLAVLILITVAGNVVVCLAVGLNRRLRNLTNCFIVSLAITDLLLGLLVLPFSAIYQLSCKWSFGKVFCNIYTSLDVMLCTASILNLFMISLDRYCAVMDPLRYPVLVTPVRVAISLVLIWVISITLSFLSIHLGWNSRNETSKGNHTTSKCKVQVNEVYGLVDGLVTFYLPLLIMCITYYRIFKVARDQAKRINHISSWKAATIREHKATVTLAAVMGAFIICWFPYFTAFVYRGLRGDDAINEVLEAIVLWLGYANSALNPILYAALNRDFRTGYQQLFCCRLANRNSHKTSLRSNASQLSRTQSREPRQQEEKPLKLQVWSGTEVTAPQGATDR

[37] = target: Serine/threonine-protein kinase 36 (Homo sapiens) (UniProt Q9NRP7); details: Compound concentration 1000.0 nM
[38] = target: Dual specificity mitogen-activated protein kinase kinase 1 (Homo sapiens) (UniProt Q02750); details: Compound concentration 1000.0 nM
[39] = target: Tyrosine-protein kinase JAK1 (Homo sapiens) (UniProt P23458); details: Compound concentration 1000.0 nM
[40] = target: Serine/threonine-protein kinase RIO2 (Homo sapiens) (UniProt Q9BVS4); details: Compound concentration 1000.0 nM
[41] = target: Serine/threonine-protein kinase Nek5 (Homo sapiens) (UniProt Q6P3R8); details: Compound concentration 1000.0 nM
[42] = target: Activin receptor type-1-like (Homo sapiens) (UniProt P37023); details: Compound concentration 1000.0 nM
[43] = target: Serine/threonine-protein kinase tousled-like 1 (Homo sapiens) (UniProt Q9UKI8); details: Compound concentration 1000.0 nM
Serine/threonine-protein kinase tousled-like 1 (Homo sapiens), sequence (Q9UKI8 whole entry): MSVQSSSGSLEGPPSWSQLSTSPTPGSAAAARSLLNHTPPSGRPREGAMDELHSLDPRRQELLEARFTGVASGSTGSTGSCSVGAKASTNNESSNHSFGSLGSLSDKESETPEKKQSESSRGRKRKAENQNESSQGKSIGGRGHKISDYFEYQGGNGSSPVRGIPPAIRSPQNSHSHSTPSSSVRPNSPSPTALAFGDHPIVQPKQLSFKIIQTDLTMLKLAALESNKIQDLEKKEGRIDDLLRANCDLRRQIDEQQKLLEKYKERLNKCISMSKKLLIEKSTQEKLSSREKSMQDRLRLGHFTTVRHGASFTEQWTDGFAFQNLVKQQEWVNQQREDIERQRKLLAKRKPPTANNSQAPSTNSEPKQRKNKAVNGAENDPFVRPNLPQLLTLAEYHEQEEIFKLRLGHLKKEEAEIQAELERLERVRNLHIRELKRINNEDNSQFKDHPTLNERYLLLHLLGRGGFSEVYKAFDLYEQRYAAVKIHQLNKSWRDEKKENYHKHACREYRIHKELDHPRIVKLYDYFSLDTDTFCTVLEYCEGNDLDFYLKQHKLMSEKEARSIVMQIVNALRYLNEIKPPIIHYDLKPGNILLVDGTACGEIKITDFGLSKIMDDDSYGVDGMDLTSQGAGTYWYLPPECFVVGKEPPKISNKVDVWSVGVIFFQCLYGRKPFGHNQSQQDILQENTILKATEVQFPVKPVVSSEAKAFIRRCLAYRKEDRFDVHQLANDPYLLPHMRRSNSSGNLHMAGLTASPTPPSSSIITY

[44] = target: Calcium-dependent protein kinase 1 (Plasmodium falciparum) (UniProt P62344); details: Compound concentration 1000.0 nM
[45] = target: Calcium/calmodulin-dependent protein kinase type II subunit beta (Homo sapiens) (UniProt Q13554); details: Compound concentration 1000.0 nM

CC(=O)Nc1c(C(C)=O)c(=O)n(C)c2nc(-c3ccc(Cl)cc3Cl)c(-c3ccc(Cl)cc3)cc12 [NAPHTHYRIDINONE]
inactive: residual activity [1] 100% | residual activity [2] 100% | residual activity [3] 100% | residual activity [4] 100% | residual activity [5] 100% | residual activity [6] 100% | residual activity [7] 100% | residual activity [8] 100% | residual activity [9] 100% | residual activity [10] 78% | residual activity [11] 80% | residual activity [12] 88% | residual activity [13] 100% | residual activity [14] 100% | residual activity [15] 100% | residual activity [16] 100% | residual activity [17] 100% | inhibition [18] 1.31% | residual activity [19] 100% | residual activity [20] 94% | inhibition [21] 1.6% | residual activity [22] 100% | residual activity [23] 100% | residual activity [24] 100% | residual activity [25] 100% | residual activity [26] 100% | residual activity [27] 100% | residual activity [28] 100% | residual activity [29] 100% | residual activity [30] 91% | residual activity [31] 100% | residual activity [32] 100% | residual activity [33] 100% | residual activity [34] 85% | residual activity [35] 100% | inhibition [36] 6.71% | residual activity [37] 92% | residual activity [38] 100% | residual activity [39] 100% | residual activity [40] 100% | residual activity [41] 100% | residual activity [42] 100% | residual activity [43] 100% | residual activity [44] 95% | residual activity [45] 100%

CC(=O)c1c(NS(C)(=O)=O)c2cc(-c3ccc(Cl)cc3)c(-c3ccc(Cl)cc3Cl)nc2n(C)c1=O [MRL-CB1-NC]
inactive: residual activity [1] 100% | residual activity [2] 92% | residual activity [3] 95% | residual activity [4] 71% | residual activity [5] 100% | residual activity [6] 100% | residual activity [7] 98% | residual activity [8] 100% | residual activity [9] 90% | residual activity [10] 98% | residual activity [11] 77% | residual activity [12] 100% | residual activity [13] 91% | residual activity [14] 94% | residual activity [15] 100% | residual activity [16] 100% | residual activity [17] 87% | inhibition [18] 19.8% | residual activity [19] 98% | residual activity [20] 82% | inhibition [21] -0.601% | residual activity [22] 100% | residual activity [23] 91% | residual activity [24] 88% | residual activity [25] 95% | residual activity [26] 100% | residual activity [27] 93% | residual activity [28] 90% | residual activity [29] 75% | residual activity [30] 100% | residual activity [31] 100% | residual activity [32] 67% | residual activity [33] 100% | residual activity [34] 95% | residual activity [35] 96% | inhibition [36] 13.8% | residual activity [37] 100% | residual activity [38] 81% | residual activity [39] 76% | residual activity [40] 100% | residual activity [41] 100% | residual activity [42] 100% | residual activity [43] 95% | residual activity [44] 99% | residual activity [45] 100%
